Read-outs that look alike come from different tables or passages of the source.
Legend:
[1] = tested on: seven bacteria; test: Antibacterial effect / antibacterial index of silver compounds; assay type: cell-based; conditions: for Antibacterial index: index between 0 and 5.05; for antibacterial effect: pH 5.5, 7 and 8.5, 160 mM NaCl, 6% PEG 2000, excess undissolved salt (precipitate) present
Protocol: The solutions further contained 160 mM NaCl and 6% PEG 2000, and all solutions were sterilized with 50 kGy β- or γ-irradiation. β-Irradiation generally gave a better antibacterial effect and a smaller degree of coloration of the products than γ-irradiation, so β-irradiation was the preferred sterilization method. The silver compounds only worked when excess undissolved salt was allowed in the packaging, that is, they had no antibacterial effect when they were decanted from their precipitate.
The antibacterial effect of each compound was scored on a scale from 0 (no effect) to 3 (excellent effect) for each of the seven bacteria. The antibacterial index was defined as 5/12 multiplied by the sum of the square roots of the scores of each of the seven bacteria. Thus, the antibacterial index was a rational number between 0 and 5.05.

[2] = Appearance index of catheter and swelling medium after sterilization; assay type: physicochemical; conditions: 0=totally unacceptable, 5=perfect
Source text: The appearance index was a weighted average of the subjective acceptability after sterilization of catheters packed in one single compartment with catheter and swelling medium (on a scale from 0 to 5: 0=totally unacceptable, e.g. by strong color or major precipitation; 5=perfect, e.g. no coloration, no precipitate) of the hydrophilic catheter (weighted 60%) and the swelling medium (weighted 40%).

[3] = assay type: physicochemical
Protocol: When the results were analyzed and further tests were carried out to confirm the results, it appeared that the effects might be third-order interactions or higher. That is, the effects came from mixtures of 3, 5, 7 or any other odd number of compounds but apparently not from main effects or 2-factor interactions. Thus, a large synergistic action between the compounds appeared to be present.

[4] = for Degradation rate of 1% H2O2: Rate constant (k) (%/day) / Degradation rate of 1% H2O2: log k (%/day): 500 µg/mL DETAPMP, 10 mM citrate, 0.7% NaCl, pH 4
Source text: The pH-value of the solution was adjusted to pH 4 with 4 M NaOH and 1 M HCl.
Seven swelling media were produced.
The irradiation dose was 2*26 kGy.
The stick-pack with “peel” was a laminated material consisting of PETP (12 μm), aluminium (9 μm) and polyethylene peel (polyethylene+10% polybutylene) (70 μm). The stick-packs were made out of a stamped area of 13×35 mm that was welded in the longitudinal direction by 1×3 units on a welder. It was welded by 2×2.2 units across in one end of the stick-pack, and in the other end by 4.0 bar, 130° C. and 3.5 s (breakable seal).

[5] = Various stabilizers: degradation of H2O2 at pH 4, 5.5 and 7; conditions: with stabilizer, 25 mM citric acid, approx. 1% H2O2
Protocol: Therefore the investigation of the influence of the pH-value on the stability in our system was included in the study.
24 different kinds of swelling media containing different stabilizers (one without stabilizer) and 3 different pH-values (pH 4, 5.5 and 7) were prepared. […] The concentration of sodium chloride in each of these three swelling media was 0.7% (w/w). Sodium chloride was tested because it could be used as an osmolality increasing agent. […] Two different kinds of material for the stick-pack were used, one with “peel” and one with “non-peel”. […] The irradiation dose was 2*26 kGy.
The stick-pack with “peel” was a laminated material consisting of PETP (12 μm), aluminium (9 μm) and polyethylene peel (polyethylene+10% polybutylene) (70 μm). […] The stick-packs were made out of a stamped area of 13×35 mm that was welded in the longitudinal direction by 1×3 units on a welder. It was welded by 2×2.2 units across in one end of the stick-pack, and in the other end by 4.0 bar, 130° C. and 3.5 s (breakable seal).
The stick-packs were stored for stability testing at 23° C. and 40° C. Samples were taken out after irradiation and after 2 and 4 weeks at 40° C. and 8 and 16 weeks at 23° C.

[6] = tested on: E. coli; test: Coated catheter on inoculated agar plate, inhibition zone; assay type: cell-based; conditions: 1-5 g/L in 50 mM citrate (pH 5.5), 160 mM NaCl and 6% PEG 2000
Protocol: (§1) A series of antibacterial agents (See Table 12.1) were swelled into a hydrophilic coating on urinary catheters. The catheters were stored about 0, 3, 6 and 12 weeks at 25° C., 40° C., and 60° C. Agar plates were inoculated with various bacterial strains clinically isolated from infected human urine, and added the coated catheter on top of the surface of the agar. The agar plates were incubated for 18 hours at 37° C., and visually tested for presence or absence of an inhibition zone.
(§2) Catheter sections with a hydrophilic coating were swelled with a solution of the anti-microbial agents and were placed on agar plates inoculated with bacteria (clinical isolates, − and + denotes […], respectively): Proteus mirabilis (−), Pseudomonas aeruginosa (−), E. coli (−), Providencia Stuartii (−), Staphylococcus aureus (+), Enterococcus faecalis (+) and Klebsielia (−).
(§3) A highly fractionated factorial design (2^15-10IV-design) was constructed by Design Expert software (version 6.0.6) and used to screen 32 of the 2^15=32768 possible combinations, where each compound was either absent or present in a relevant concentration. […] All samples were β-sterilized with a dose of 50 kGy. The constituents and concentrations of the 32 solutions are described in Table 12.1:
(§4) Many of the 32 mixtures had powerful action against several of the 7 bacteria (0=no effect; 3=excellent effect), see Table 12.2 (sorted by decreasing antibacterial effect).

[7] = tested on: Enterococcus faecalis; test: as above; assay type: cell-based; conditions: 1-5 g/L in 50 mM citrate (pH 5.5), 160 mM NaCl and 6% PEG 2000
Protocol: as §1, §2, §3, §4

[8] = tested on: Klebsiella; test: as above; assay type: cell-based; conditions: 1-5 g/L in 50 mM citrate (pH 5.5), 160 mM NaCl and 6% PEG 2000
Protocol: as §1, §2, §3, §4

[9] = tested on: Proteus mirabilis; test: as above; assay type: cell-based; conditions: 1-5 g/L in 50 mM citrate (pH 5.5), 160 mM NaCl and 6% PEG 2000
Protocol: as §1, §2, §3, §4

[10] = tested on: Providencia Stuartii; test: as above; assay type: cell-based; conditions: 1-5 g/L in 50 mM citrate (pH 5.5), 160 mM NaCl and 6% PEG 2000
Protocol: as §1, §2, §3, §4

[11] = tested on: Pseudomonas aeruginosa; test: as above; assay type: cell-based; conditions: 1-5 g/L in 50 mM citrate (pH 5.5), 160 mM NaCl and 6% PEG 2000
Protocol: as §1, §2, §3, §4

[12] = tested on: Staphylococcus aureus; test: as above; assay type: cell-based; conditions: 1-5 g/L in 50 mM citrate (pH 5.5), 160 mM NaCl and 6% PEG 2000
Protocol: as §1, §2, §3, §4

CC1(C)NC(=O)[N-]C1=O.[Ag+] [5,5-DMH, silver 5,5-dimethylhydantoinate]
Antibacterial index ([1]; pH 5.5, 0.01% H2O2 added): 1.4
antibacterial effect [1]: moderate to excellent
Antibacterial index ([1]; pH 5.5, no H2O2 added): 1.8
Antibacterial index ([1]; pH 7, no H2O2 added): 3.4
Antibacterial index ([1]; pH 8.5, no H2O2 added): 1.7
Appearance index ([2]; pH 5.5, 0.01% H2O2 added): 5
Appearance index ([2]; pH 5.5, no H2O2 added): 2.8
Appearance index ([2]; pH 7, no H2O2 added): 3.4
Appearance index ([2]; pH 8.5, no H2O2 added): 2.2

[H]/N=C(\N/C(=N/[H])NCCCCCCNC(=N)NC(=N)Nc1ccc(Cl)cc1)Nc1ccc(Cl)cc1 [Chlorhexidine, chlorhexidine digluconate]
solubility [3]: sparingly soluble

O=P(O)(O)CN(CCN(CP(=O)(O)O)CP(=O)(O)O)CCN(CP(=O)(O)O)CP(=O)(O)O [DETAPMP, Diethylenetriaminepenta(methylenephosphonic)acid]
Concentration of H2O2 (%) after storage at 40° C. ([4]; 50 mg/L DETAPMP, 0 days): 0.92%
Concentration of H2O2 (%) after storage at 40° C. ([4]; 50 mg/L DETAPMP, 14 days): 0.89%
Concentration of H2O2 (%) after storage at 40° C. ([4]; 50 mg/L DETAPMP, 25 days): 0.89%
Concentration of H2O2 (%) after storage at 40° C. ([4]; 100 mg/L DETAPMP, 0 days): 0.91%
Concentration of H2O2 (%) after storage at 40° C. ([4]; 100 mg/L DETAPMP, 14 days): 0.89%
Concentration of H2O2 (%) after storage at 40° C. ([4]; 100 mg/L DETAPMP, 25 days): 0.88%
Concentration of H2O2 (%) after storage at 40° C. ([4]; 150 mg/L DETAPMP, 0 days): 0.91%
Concentration of H2O2 (%) after storage at 40° C. ([4]; 150 mg/L DETAPMP, 14 days): 0.90%
Concentration of H2O2 (%) after storage at 40° C. ([4]; 150 mg/L DETAPMP, 25 days): 0.89%
Concentration of H2O2 (%) after storage at 40° C. ([4]; 200 mg/L DETAPMP, 0 days): 0.91%
Concentration of H2O2 (%) after storage at 40° C. ([4]; 200 mg/L DETAPMP, 14 days): 0.89%
Concentration of H2O2 (%) after storage at 40° C. ([4]; 200 mg/L DETAPMP, 25 days): 0.89%
Concentration of H2O2 (%) after storage at 40° C. ([4]; 250 mg/L DETAPMP, 0 days): 0.90%
Concentration of H2O2 (%) after storage at 40° C. ([4]; 250 mg/L DETAPMP, 14 days): 0.89%
Concentration of H2O2 (%) after storage at 40° C. ([4]; 250 mg/L DETAPMP, 25 days): 0.89%
Concentration of H2O2 (%) after storage at 40° C. ([4]; 350 mg/L DETAPMP, 0 days): 0.91%
Concentration of H2O2 (%) after storage at 40° C. ([4]; 350 mg/L DETAPMP, 14 days): 0.89%
Concentration of H2O2 (%) after storage at 40° C. ([4]; 350 mg/L DETAPMP, 25 days): 0.89%
Concentration of H2O2 (%) after storage at 40° C. ([4]; 500 mg/L DETAPMP, 0 days): 0.91%
Concentration of H2O2 (%) after storage at 40° C. ([4]; 500 mg/L DETAPMP, 14 days): 0.89%
Concentration of H2O2 (%) after storage at 40° C. ([4]; 500 mg/L DETAPMP, 25 days): 0.89%
Degradation rate of 1% H2O2: Rate constant (k) (%/day) ([4]; 40° C.): 0.0932 %/day
Degradation rate of 1% H2O2: log k (%/day) ([4]; 40° C.): −1.031 %/day
Degradation rate of 1% H2O2: Rate constant (k) (%/day) ([4]; 50° C.): 0.1722 %/day
Degradation rate of 1% H2O2: log k (%/day) ([4]; 50° C.): −0.764 %/day
Degradation rate of 1% H2O2: Rate constant (k) (%/day) ([4]; 60° C.): 0.3691 %/day
Degradation rate of 1% H2O2: log k (%/day) ([4]; 60° C.): −0.433 %/day
activation energy for the degradation of H2O2 ([4]; Arrhenius plot 40-60° C., DETAPMP at pH 4 and 10 mM citrate): 14.2 kcal/mol
Q10 of H2O2 degradation rate ([4]; DETAPMP at pH 4 and 10 mM citrate): ≈ 2

CC(O)(P(=O)(O)O)P(=O)(O)O [HEDP, 1-Hydroxyethane-1,1 diphosphonic acid]
calculated amount of degraded H2O2 after 2 years of storage at 23° C. ([5]; pH 4): 65.4%
calculated amount of degraded H2O2 after 2 years of storage at 23° C. ([5]; pH 5.5): 150.0%
calculated amount of degraded H2O2 after 2 years of storage at 23° C. ([5]; pH 7): 351.1%

O=C1CNC(=O)[N-]1.[Ag+] [Hydantoinate, silver hydantoinate]
Antibacterial index ([1]; pH 5.5, 0.01% H2O2 added): 2.3
antibacterial effect [1]: moderate to excellent
Antibacterial index ([1]; pH 5.5, no H2O2 added): 2.7
Antibacterial index ([1]; pH 7, no H2O2 added): 3.3
Antibacterial index ([1]; pH 8.5, no H2O2 added): 3.2
Appearance index ([2]; pH 5.5, 0.01% H2O2 added): 3.6
Appearance index ([2]; pH 5.5, no H2O2 added): 4
Appearance index ([2]; pH 7, no H2O2 added): 3.4
Appearance index ([2]; pH 8.5, no H2O2 added): 2.8

[Cl][Ag] [silver chloride]
solubility [3]: sparingly soluble

benzalkonium chloride
antibacterial effect on E. coli [6]: moderate to high
antibacterial effect on E. faecalis [7]: moderate to high
antibacterial effect on Klebsiella [8]: moderate to high
antibacterial effect on P. mirabilis [9]: not
antibacterial effect on P. stuartii [10]: moderate to high
antibacterial effect on P. aeruginosa [11]: moderate to high
antibacterial effect on S. aureus [12]: moderate to high

polymeric silver imidazolate
Antibacterial index ([1]; pH 5.5, 0.01% H2O2 added): 2.7
antibacterial effect [1]: moderate to excellent
Antibacterial index ([1]; pH 5.5, no H2O2 added): 0.8
Antibacterial index ([1]; pH 7, no H2O2 added): 3.2
Antibacterial index ([1]; pH 8.5, no H2O2 added): 2.8
Appearance index ([2]; pH 5.5, 0.01% H2O2 added): 3
Appearance index ([2]; pH 5.5, no H2O2 added): 3.4
Appearance index ([2]; pH 7, no H2O2 added): 4.2
Appearance index ([2]; pH 8.5, no H2O2 added): 3.2

Reference: patent publication US9028858B2 (Coloplast A/S, priority 2003, dated 2015)
